{"source": "patent US9513288B2", "about": "“Isoform-selective inhibitors and activators of PDE3 cyclic nucleotide phosphodiesterases” (The United States of America, as represented by the …, priority 2001, dated 2016)", "format_in_all_cases": "cell-based, human", "key": {"PDE3A1 [1]": {"system": "PDE3A1", "test": "Phosphorylation and 14-3-3 binding of FLAG-tagged PDE3A1 in transfected HEK293 cells", "settings": "isoproterenol 90 sec, PMA 10 ng/ml 15 min", "procedure": "FIGS. 8A-8C Illustrate phosphorylation of PDE3A1 and PDE3A2 in response to PKA and PKC activation. HEK293 cells were transfected with FLAG-tagged PDE3A2 and PDE3A1. (A) Prior to lysis and immunoprecipitation with anti-FLAG antibodies, cells were treated with 1 µM isoproterenol for 90 sec or 10 ng/ml PMA for 15 min. (B) The experiment was carried out in cells incubated in the absence and presence of 100 μM IBMX before treatment with 1 µM isoproterenol for 90 sec. (C) FLAG-tagged PDE3A2 and PDE3A1, affinity-purified from transfected cells using anti-FLAG antibodies, were incubated in the absence or presence of 10 or 100 nM PKA and 200 μM ATP for 20 min at 30° C. Phosphorylation was analyzed by Western blotting with phosphospecific antibodies as indicated.\nFurthermore, when affinity-purified FLAG-tagged PDE3A and PDE3A2 were phosphorylated in vitro by PKA, PDE3A2 was phosphorylated more robustly than PDE3A1 at both S312 and S428 (for both isoforms, S312 was phosphorylated more robustly than S428) […].\nActivation of PKC by PMA in transfected HEK293 cells results in selective phosphorylation of PDE3A2 at S428: We compared the effects of PKC activation by PMA on the phosphorylation of FLAG-tagged PDE3A1 and PDE3A2 in transfected HEK293 cells.\nIllustrative immunoprecipitation and immunoblotting: Endogenous or recombinant human PDE3A, its fragments or mutants, endogenous 14-3-3 or GST-14-3-3 proteins were immunoprecipitated by incubation overnight at 4° C. with anti-FLAG(M2)-coupled agarose beads or glutathione sepharose beads. Beads were centrifuged (5,000×g, 1 min) and washed four times with 1 ml buffer containing 20 mM MOPS pH 7.2, 15 mM MgCl2, 0.5% NP40 and 150 mM NaCl. Proteins were subjected to SDS-PAGE (8% polyacrylamide) and electrophoretic transfer to nitrocellulose membranes. Membranes were blocked using 5% nonfat milk in Tris-buffered saline (50 mM Tris pH 7.5, 150 mM NaCl, 0.1% Tween-20) for 1 h at room temperature and incubated with primary and HRP-conjugated secondary antibodies prepared in 5% (w/v) bovine serum albumin. Protein bands were visualized using an enhanced chemiluminescence detection system.\n(§1) Treatment of cells with pharmacologic agents: HEK293 cells expressing the human PDE3A constructs were incubated at 37° C. in serum-free medium containing isoproterenol for 90 sec or PMA for 15 min. At the end of the incubation period, cells were solubilized in lysis buffer containing 20 mM MOPS pH 7.2, 15 mM MgCl2, 0.5% NP40, 150 mM NaCl, 5 mM EDTA, protease inhibitor cocktail and phosphatase inhibitor cocktail 3. Cellular debris was removed by centrifugation (1,000×g; 5 min), and cleared supernatants were used in the experiments."}, "PDE3A1 [2]": {"system": "PDE3A1", "test": "cAMP-hydrolytic activity of FLAG-tagged PDE3A1 in transfected HEK293 cells", "settings": "1 μM isoproterenol 90 sec, 1 mM dBcAMP 1 hour, 50 μM 8-pCPT-2′-O-Me-cAMP or 0.1 mM sodium butyrate 1 hour", "procedure": "FIG. 3 Illustrates an illustrative effect of d8-pCPT-2′-O-Me-cAMP and sodium butyrate on PDE3A1 activity, wherein HEK293 cells were transfected with FLAG-tagged PDE3A and treated with 50 μM d8-pCPT-2′-O-Me-cAMP, 0.1 mM sodium butyrate or 1 mM dBcAMP for 1 hour. PDE3A activity was assayed as described;\n(§2) FIGS. 9A-9B illustrate stimulation of PDE3A2 and PDE3A1 activity in response to PKC and PKA activation. (A) HEK293 cells were transfected with FLAG-tagged PDE3A2, with and without alanine substitution at S428, and treated with 10 ng/ml PMA for 15 min or 1 mM dBcAMP for 1 hour. (B) HEK293 cells were transfected with FLAG-tagged PDE3A1, with and without alanine substitutions at S312 and S428, and treated with 1 μM isoproterenol for 90 sec, 10 ng/ml PMA for 15 min or 1 mM dBcAMP for 1 hour. PDE3 activity was assayed as described. PDE3A constructs were immunoprecipitated with anti-FLAG antibody, and phosphorylation was analyzed by immunoblotting with anti-FLAG and phosphospecific antibodies as indicated; and\n(§3) PKA and PKC modulate the catalytic activity of PDE3A and PDE3A2 through distinct molecular mechanisms: In view of the reported effects of PKA and PKC on PDE3A activity^3-6, we examined the effects of phosphorylation at S312 and S428 on the cAMP-hydrolytic activity of PDE3A isoforms in transfected HEK293 cells. […] This stimulation was not observed when cells were treated with either the EPAC activator 8-pCPT-2′-O-Me-cAMP or with sodium butyrate (FIG. 3). […] To determine whether similar consequences of phosphorylation occur in the case of PDE3A isoforms, protein extracts from transfected HEK293 cells, untreated or exposed to either isoproterenol or PMA, were analyzed by gel-filtration chromatography, measurement of catalytic activity and Western blotting. Under basal conditions, PDE3 activity and protein was recovered in a biphasic pattern in low- and high-molecular-weight peaks (FIG. 5).\n(§4) Measurement of cAMP-hydrolytic activity: cAMP-hydrolytic activity was quantified at 30° C. by the two-step snake-venom method with [^3H]cAMP (1 μM) as substrate; PDE3 activity was quantified by measuring activity in the absence and presence of cilostamide. The amount of protein used per assay and the incubation times were adjusted to ensure that no more than 20% of the total cyclic nucleotide was hydrolyzed during the assay.\nas §1"}, "PDE3A2": {"system": "PDE3A2", "test": "cAMP-hydrolytic activity of FLAG-tagged PDE3A2 in transfected HEK293 cells", "settings": "10 ng/ml PMA 15 min, 1 mM dBcAMP 1 hour, isoproterenol", "procedure": "as §2, §3, §4, §1"}}, "data": [{"smiles": "CC(C)NCC(O)c1ccc(O)c(O)c1", "note": "(stereo not shown) [isoproterenol]", "values": [{"measurement": "binding of PDE3A1 to endogenous 14-3-3 (co-immunoprecipitation)", "setting": "PDE3A1 [1]", "result": "co-immunoprecipitation of endogenous 14-3-3"}, {"measurement": "phosphorylation of PDE3A1 at S312", "setting": "PDE3A1 [1]; dibutyryl cAMP 1 mM 1 hour, phosphospecific antibodies", "result": "phosphorylation of PDE3A1 at S312"}, {"measurement": "cAMP-hydrolytic activity of PDE3A1", "setting": "PDE3A1 [2]", "result": "did not stimulate cAMP-hydrolytic activity"}, {"measurement": "cAMP-hydrolytic activity of PDE3A2", "setting": "PDE3A2", "result": "no stimulation of either isoform"}]}]}
